One data set has as its system lungs of mice. The note with it: mouse, in vivo.
In a further data set the test system is C57BL/6J mice. The conditions noted are these: mouse, in vivo.

Protocol for C57BL/6J mice: Either hydroxyapatite microspheres (HAMs, Fluidinova) or talc was injected via the intrapleural (i.pl.) route into C57BL/6J mice. For the mice injected with HAMs, 4 mg/g mouse of HAM/300 μL saline/mice was used. For the mice injected with talc, 2 mg/g mouse of talc/300 μL saline/mice was used. The mice were euthanized at day 0, day 7, day 14 or day 28 and post-mortem assessments were performed. Effectiveness of pleurodesis was assessed by introducing air into the pleural space. Each lung was punctured percutaneously with a 20 G needle for 12 times for left and right lung (total 24 times) (transthoracic needle puncture). Then, a CT scan was taken to measure the volume of pneumothorax air space in the thoracic cavity (see FIGS. 1A and 1B).
In addition, paraffin-embedded lung sections were stained with H&E and Mason's trichrome reagent for microscopic evaluation of pleural fibrosis and pleural thickness. Clearance of particles was assessed by microCT (see FIGS. 2A and 2B). Macroscopic pleural adhesions were scored (see FIGS. 3A, 3B and 3C); pleural lavage cells were collected to assess OLMNGC (osteoclast-like multinucleated giant cells) formation, including cytology, fibrosis- and osteoclast-related gene and protein expression of tartrate-resistant acid phosphatase (TRAP), (CTSK), and calcitonin receptor (Calcr) antibody by rtPCR and immunohistochemistry

On to hydroxyapatite [HAMs], for which, in the data set on lungs of mice, the lung inflammation entry is reported as “transient monocyte rich inflammation” and the pulmonary fibrosis result is reported as “no residual fibrosis”. For the same substance, the “clearance of particles from the lungs” value with lungs of mice (inhaled or intranasal) was “cleared within a month”. Moreover, in the data set on C57BL/6J mice, the “amount of residual particles in the thoracic cavity” value is listed as “decreased over time” and the clearance of particles entry was “almost completely cleared”.
